Assay results reported in patent publication US20180153830A1, “SELECTIVE INHIBITORS OF UNDIFFERENTIATED CELLS” (Yissum Research Development Company of the Hebrew …, priority 2012, published 2018).

Assays:
[1] = hPSC viability after SCD1 inhibitors with or without oleic acid; assay type: cell-based, human; conditions: human, human pluripotent stem cells (hPSCs), 75 nM, read-out: decrease in viability of hPSCs
Method: (§1) In order to determine whether hPSC viability indeed depends on functional SCD1 activity, hPSCs were exposed to 75 nM of the specific SCD1 inhibitors A939572 and CAY-10566 for 48 hours. Some samples were supplemented with 100 μM oleic acid in order to evaluate the effect of exogenous supplementation of oleic acid (a product of SCD1 activity) on cell death.

[2] = tested on: hPSCs; assay: as above; assay type: cell-based, human; conditions: 75 nM inhibitor, 100 μM oleic acid, 48 hours
Method: as §1

[3] = tested on: undifferentiated stem-like glioma cells (SLGCs); assay: Methylene blue viability, undifferentiated SLGCs; assay type: cell-based; conditions: up to 100 μM, 72 hours, 2% fetal bovine serum
Method: (§2) For the high-throughput screens, relative cell number was determined using a CellTiter-Glo® Luminescent Cell Viability Assay as described hereinabove. Otherwise, relative cell numbers were determined by fixating the cells with 0.5% glutardialdehyde and staining with methylene blue dissolved in 0.1 M boric acid (pH 8.5). Color extraction was performed using 0.1 M hydrochloric acid, and the staining (which is proportional to cell number) was quantified by measuring absorbance at a wavelength of 650 nm.
In a second experiment, undifferentiated stem-like glioma cells (SLGCs) were compared with SLGCs differentiated by monolayer adhesion and exposure to 1 μM retinoic acid for one week, in accordance with procedures described by Campos et al. [Clinical Cancer Research 16:2715-2728 (2010)]. Differentiation of SLGCs is associated with a reduction in tumorigenicity [Campos et al., Clinical Cancer Research 16:2715-2728 (2010)].
(§3) The differentiated and undifferentiated cells were exposed to PluriSIn #1 at concentrations of up to 100 μM for 72 hours under low (2%) fetal bovine serum conditions. Their viability was then measured using a methylene blue viability assay, as described hereinabove.

[4] = tested on: pluripotent cells in mixed cell population (differentiated and undifferentiated CSES2-SO2/3 cells); assay: FACS analysis of TRA-1-60 in mixed cell populations; assay type: cell-based, human; conditions: 48 hours, 6-well plates
Method: For quantification of remaining undifferentiated cells after treatment, cells were treated with 20 μM PluriSIn #1 (isonicotinic acid N′-phenylhydrazide) for 48 hours or 72 hours, dissociated using TrypLE™ Select (Invitrogen), and washed with PBS supplemented with 10% FBS and 0.05% sodium azide. Dissociated cells were suspended to a final concentration of 10^6 cells/ml. Cells were incubated on ice with TRA1-60-PE antibody (1:40, BD Biosciences), washed and analyzed using LSR II FACS (BD Biosciences) with FCS Express software (De Novo Software, Los Angeles, Calif.).
Mixed cell populations were cultured in 6-well plates and exposed to PluriSIn #1 for 48 hours. The cells were then analyzed by FACS analysis, using staining for the pluripotent marker TRA-1-60, and by fluorescence microscopy imaging of OCT4, as described in the Materials and Methods section.

[5] = tested on: normal (immortalized) BJ fibroblasts; assay: Methylene blue viability, immortalized BJ fibroblasts; assay type: cell-based, human; conditions: up to 100 μM, 72 hours, 2% fetal bovine serum
Method: as §2
In one experiment, immortalized BJ fibroblasts served as differentiated cells and were compared with BJ fibroblasts induced to undergo cellular transformation, which served as their undifferentiated cancerous counterparts. […]
as §3

[6] = tested on: H9 stem cells; assay: Elimination of undifferentiated cells cultured in 6-well plates; assay type: cell-based, human; conditions: 20 μM
Source text: The PluriSIns were first tested in various culture conditions and exposure durations.

Row | SMILES | cytotoxicity at 48 h, 75 nM [1] [%] | rescue from SCD1 inhibitor-induced cell death by oleic acid [2] | cytotoxicity towards undifferentiated SLGC [3] | pluripotent cells eliminated from culture (TRA-1-60 FACS) [4] | effect on normal (immortalized) BJ fibroblasts [5] | exposure required for complete elimination of undifferentiated cells [6] [h]
1 | CNC(=O)c1cccc(NC(=O)N2CCC(Oc3ccccc3Cl)CC2)c1 [A939572, 4-(2-chlorophenoxy)-N-(3-(methylcarbamoyl)-phenyl)piperidine-1-carboxamide, reference compound] | > 80 | completely rescued |  |  |  | 
2 | O=C(NNc1ccccc1)c1ccncc1 [PluriSIn #1, isonicotinic acid N′-phenylhydrazide] |  |  | highly cytotoxic | over 99% | little effect | 48
